Test results taken from US9067932B2, “Pyrazolopyridine kinase inhibitors” (Vertex Pharmaceuticals Incorporated, priority 2010, dated 2015).
Read-outs that look alike come from different tables or passages of the source.

What was measured:
Format in all cases: biochemical
[1] = target: PKC delta kinase (Homo sapiens, UniProt Q05655); experiment: PKC delta coupled-enzyme (NADH consumption) kinase assay; settings: 46 nM PKC delta, 150 μM ATP, 30° C., initial rate at 340 nm
Experimental: (§1) An assay buffer solution was prepared which consisted of 100 mM HEPES (pH 7.5), 10 mM MgCl2, 25 mM NaCl, 0.1 mM EDTA and 0.01% Brij. […] To 16 μL of this enzyme buffer, in a 384 well plate, was added 1 μL of VRT stock solution in DMSO. […] The enzyme reaction was initiated by the addition of 16 μL stock ATP solution prepared in assay buffer to a final assay concentration of 150 μM. Initial rate data was determined from the rate of change of absorbance at 340 nm (corresponding to stoichiometric consumption of NADH) using a Molecular Devices Spectramax plate reader (Sunnyvale, Calif.) over 15 mins at 30° C. For each Ki determination 12 data points covering the VRT concentration range of 0-20 μM were obtained in duplicate (DMSO stocks were prepared from an initial 10 mM VRT stock with subsequent 1:2 serial dilutions). Ki values were calculated from initial rate data by non-linear regression using the Prism software package (Prism 4.0a, Graphpad Software, San Diego, Calif.).

[2] = target: PKC theta kinase (Homo sapiens, UniProt Q04759); experiment: PKC theta coupled-enzyme (NADH consumption) kinase assay; settings: 18 nM PKC theta, 240 μM ATP, 30° C., initial rate at 340 nm
Experimental: as §1, with “To 60” for “To 16”, “added 2” for “added 1”, “of 5” for “of 16”, “of 240” for “of 150”

[3] = target: PKC alpha kinase (Homo sapiens, UniProt P17252); experiment: PKC alpha coupled-enzyme (NADH consumption) kinase assay; settings: 4.5 nM PKC alpha, 130 μM ATP, 100 μM CaCl2, 30° C.
Experimental: An assay buffer solution was prepared which consisted of 100 mM HEPES (pH 7.5), 10 mM MgCl2, 25 mM NaCl, 0.1 mM EDTA, 100 μM CaCl2 and 0.01% Brij. An enzyme buffer containing reagents to final assay concentrations of 0.002% Triton X-100, 100 μg/mL Phosphatidylserine, 20 μg/mL Diacylglycerol, 360 μM NADH, 3 mM phosphoenolpyruvate, 70 μg/mL pyruvate kinase, 24 μg/mL lactate dehydrogenase, 2 mM DTT, 150 μM substrate peptide ([…] SEQ ID NO. 1) and 4.5 nM PKC alpha kinase was prepared in assay buffer. To 16 μL of this enzyme buffer, in a 384 well plate, was added 1 μL of VRT stock solution in DMSO. The mixture was allowed to equilibrate for 10 mins at 30° C. The enzyme reaction was initiated by the addition of 16 μL stock ATP solution prepared in assay buffer to a final assay concentration of 130 μM. Initial rate data was determined from the rate of change of absorbance at 340 nm (corresponding to stoichiometric consumption of NADH) using a Molecular Devices Spectramax plate reader (Sunnyvale, Calif.) over 15 mins at 30° C. For each Ki determination 12 data points covering the VRT concentration range of 0-20 μM were obtained in duplicate (DMSO stocks were prepared from an initial 10 mM VRT stock with subsequent 1:2 serial dilutions). Ki values were calculated from initial rate data by non-linear regression using the Prism software package (Prism 4.0a, Graphpad Software, San Diego, Calif.).

Sequence of PKC theta kinase (Q04759 whole entry): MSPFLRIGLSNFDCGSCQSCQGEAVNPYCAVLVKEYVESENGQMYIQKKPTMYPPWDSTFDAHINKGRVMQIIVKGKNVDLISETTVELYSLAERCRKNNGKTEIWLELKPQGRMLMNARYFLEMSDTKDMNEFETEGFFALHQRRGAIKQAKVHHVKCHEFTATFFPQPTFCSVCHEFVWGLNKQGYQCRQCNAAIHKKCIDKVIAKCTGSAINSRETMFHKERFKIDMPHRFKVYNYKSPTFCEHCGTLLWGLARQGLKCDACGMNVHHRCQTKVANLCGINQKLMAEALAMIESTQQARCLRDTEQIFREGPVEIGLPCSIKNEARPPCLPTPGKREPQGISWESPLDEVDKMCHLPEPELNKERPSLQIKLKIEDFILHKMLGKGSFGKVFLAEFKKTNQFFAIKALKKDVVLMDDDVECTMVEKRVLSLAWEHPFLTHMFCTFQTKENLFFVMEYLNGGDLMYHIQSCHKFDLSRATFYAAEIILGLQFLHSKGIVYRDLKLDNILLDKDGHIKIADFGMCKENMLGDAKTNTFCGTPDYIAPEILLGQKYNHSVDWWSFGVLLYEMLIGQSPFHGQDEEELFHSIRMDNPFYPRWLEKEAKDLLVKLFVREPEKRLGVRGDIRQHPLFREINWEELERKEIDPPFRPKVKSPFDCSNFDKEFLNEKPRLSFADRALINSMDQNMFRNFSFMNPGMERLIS
Sequence of PKC delta kinase (Q05655 whole entry): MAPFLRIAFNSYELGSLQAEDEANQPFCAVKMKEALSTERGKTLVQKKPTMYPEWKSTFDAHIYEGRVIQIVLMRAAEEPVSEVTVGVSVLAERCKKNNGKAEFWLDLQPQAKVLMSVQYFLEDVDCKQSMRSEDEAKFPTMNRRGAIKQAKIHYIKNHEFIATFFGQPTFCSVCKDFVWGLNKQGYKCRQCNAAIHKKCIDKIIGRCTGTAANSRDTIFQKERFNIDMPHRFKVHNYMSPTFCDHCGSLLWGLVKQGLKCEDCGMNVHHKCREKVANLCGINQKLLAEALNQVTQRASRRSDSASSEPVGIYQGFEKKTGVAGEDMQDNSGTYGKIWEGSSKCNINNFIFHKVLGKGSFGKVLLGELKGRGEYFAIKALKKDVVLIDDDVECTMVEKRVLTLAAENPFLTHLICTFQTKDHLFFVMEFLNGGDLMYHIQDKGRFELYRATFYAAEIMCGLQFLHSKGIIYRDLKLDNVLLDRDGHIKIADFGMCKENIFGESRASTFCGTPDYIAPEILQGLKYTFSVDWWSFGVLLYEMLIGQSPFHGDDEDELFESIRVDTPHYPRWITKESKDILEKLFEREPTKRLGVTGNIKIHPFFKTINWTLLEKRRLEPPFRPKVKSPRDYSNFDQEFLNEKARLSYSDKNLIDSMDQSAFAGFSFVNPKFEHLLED

SMILES	Ki [1] [nM]	Ki ([2]; read-out: Ki PKC theta) [nM]	Ki ([3]; read-out: Ki PKC alpha) [nM]	Ki ([2]; Ki PKC theta) [nM]	Ki ([3]; Ki PKC alpha) [nM]
CC(C)C(O)C1CN(c2nc(-c3n[nH]c4ncccc34)c(F)cc2Cl)CCN1 (stereo not drawn) [Compound 20]	< 50	< 1	< 500		
CC(C)[C@@](C)(O)[C@@H]1CN(c2nc(-c3n[nH]c4ncccc34)c(C#N)cc2F)CCN1 [Compound 43]	> 1250	< 50	> 1250		
CC(C)C(N)[C@H]1CCN(c2nc(-c3n[nH]c4ncccc34)c(F)cc2Cl)C1 (stereo partly drawn) [Compound 23]	< 50	< 1	< 500		
COCC(C)(O)C1CN(c2nc(-c3n[nH]c4ncccc34)c(F)cc2F)CCN1 (stereo not drawn) [Compound 16]	< 500	< 50	> 1250		
CC(C)C(N)[C@H]1CCN(c2nc(-c3n[nH]c4ncccc34)c(F)cc2C#N)C1 (stereo partly drawn) [Compound 37]	< 500	< 50	< 2800		
CC(C)(C)C(O)C1CN(c2nc(-c3n[nH]c4ncccc34)c(F)cc2F)CCN1 (stereo not drawn) [Compound 27]	< 10	< 1	< 500		
OC(C1CC1)C1CN(c2nc(-c3n[nH]c4ncccc34)c(F)cc2Cl)CCN1 (stereo not drawn) [Compound 31]	< 50	< 1	< 2800		
CC(C)[C@](C)(O)[C@@H]1CN(c2nc(-c3n[nH]c4ncccc34)c(F)cc2Cl)CCN1 [Compound 38]	< 500	< 50	< 2800		
CC(O)(C1CN(c2nc(-c3n[nH]c4ncccc34)c(F)cc2F)CCN1)C(F)(F)F (stereo not drawn) [Compound 13]	< 500	< 1	< 2800		
CC(C)(O)[C@@](C)(O)[C@@H]1CN(c2nc(-c3n[nH]c4ncccc34)c(F)cc2Cl)CCN1 [Compound 42]	< 50	< 1	< 2800		
CC1(C)CC1(O)C1CN(c2nc(-c3n[nH]c4ncccc34)c(F)cc2F)CCN1 (stereo not drawn) [Compound 2]	< 10	< 1	< 500		
CC(C)[C@@](C)(O)[C@@H]1CN(c2nc(-c3n[nH]c4ncccc34)c(F)cc2O)CCN1 [Compound 32]	< 10	< 1	< 500		
CC(C)C(N)[C@H]1CCN(c2nc(-c3n[nH]c4ncccc34)c(C#N)cc2F)C1 (single isomer, unassigned) [Compound 36]	> 1250	< 500	> 1250		
CC(C)C(O)C1CN(c2nc(-c3n[nH]c4ncccc34)c(F)cc2Cl)CCN1 (stereo not drawn) [Compound 21]	< 500	< 50	< 2800		
CC(C)[C@@](C)(O)C1CN(c2nc(-c3n[nH]c4ncccc34)c(C#N)cc2F)CCN1 (stereo partly drawn) [Compound 34]	> 1250	< 50	> 1250		
CC(C)[C@@](C)(O)[C@@H]1CN(c2nc(-c3n[nH]c4ncccc34)c(F)cc2Cl)CCN1 [Compound 9, (R)-2-((S)-4-(3-chloro-5-fluoro-6-(1H-pyrazolo[3,4-b]pyridin-3-yl)pyridin-2-yl)piperazin-2-yl)-3-methylbutan-2-ol]	< 50	< 1	< 500		
CC(CO)[C@@](C)(O)[C@@H]1CN(c2nc(-c3n[nH]c4ncccc34)c(F)cc2F)CCN1 (stereo partly drawn) [Compound 40]	< 50	< 1	< 500		
CC(C)(O)[C@@](C)(O)[C@@H]1CN(c2nc(-c3n[nH]c4ncccc34)c(F)cc2F)CCN1 [Compound 41]	< 500	< 1	< 500		
CCC(O)C1CN(c2nc(-c3n[nH]c4ncccc34)c(F)cc2Cl)CCN1 (stereo not drawn) [Compound 18]	< 500	< 50	> 1250		
CC(C)[C@@](C)(O)[C@@H]1CN(c2nc(-c3n[nH]c4ncccc34)c(F)cc2F)CCN1 [Compound 1, (R)-2-((S)-4-(3,5-difluoro-6-(1H-pyrazolo[3,4-b]pyridin-3-yl)pyridin-2-yl)piperazin-2-yl)-3-methylbutan-2-ol]	< 50			< 1	< 500
